In patent publication US20110257208A1, “COMPOUNDS USEFUL AS FAAH MODULATORS AND USES THEREOF” (priority 2008, published 2011):

The molecules below were run against T1, hFAAH (Homo sapiens, UniProt O00519) (assay: Fluorimetric assay with hFAAH microsomes (enzymatic, fluorescence based)). Conditions: compound at 1 uM, AA-AMC substrate.
T1 construct: expressed in transfected cells; host or cells: HEK293-TRex (Invitrogen) stably transfected with hFAAH in the pcDNA5-Tet-off vector, or T84 human colon epithelial cells (endogenous hFAAH); used as a microsomal preparation
T1 sequence (O00519 1-579): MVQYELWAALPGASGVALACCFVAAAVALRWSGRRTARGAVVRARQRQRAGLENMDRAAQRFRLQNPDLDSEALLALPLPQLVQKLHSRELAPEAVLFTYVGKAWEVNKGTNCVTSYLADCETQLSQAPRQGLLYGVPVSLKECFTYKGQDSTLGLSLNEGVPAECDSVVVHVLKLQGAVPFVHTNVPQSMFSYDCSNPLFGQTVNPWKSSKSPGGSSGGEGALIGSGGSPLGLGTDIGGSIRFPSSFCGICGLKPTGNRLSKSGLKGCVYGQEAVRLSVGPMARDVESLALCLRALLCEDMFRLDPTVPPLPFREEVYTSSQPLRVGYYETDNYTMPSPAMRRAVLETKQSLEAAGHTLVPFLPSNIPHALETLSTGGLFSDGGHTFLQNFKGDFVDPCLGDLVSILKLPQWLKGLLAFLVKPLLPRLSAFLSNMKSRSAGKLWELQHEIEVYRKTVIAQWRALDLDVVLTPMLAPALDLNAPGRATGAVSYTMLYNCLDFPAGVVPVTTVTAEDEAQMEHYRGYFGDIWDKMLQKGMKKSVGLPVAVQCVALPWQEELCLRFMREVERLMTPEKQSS
Type: biochemical
Experimental: Human cell line T84 (human colon epithelial cells), which expresses endogenous hFAAH, or HEK293-TRex cells (Invitrogen) stably transfected with hFAAH in the pcDNA5-Tet-off vector are cultured in medium containing DMEM, 10% FBS penicillin/streptomycin, glutamax, 200 μg/ml hygromycin and 0.5 μg/ml blasticidin. Cell collection is done 24 h after induction with doxycycline by first washing the cells with cold PBS and then incubating them with Versene before centrifugation. Cell pellets are then stored at −80° C. until needed. For homogenization, the cell pellets are thawed on ice […] and resuspended in homogenization buffer (50 mM HEPES (pH 7.4), 1 mM EDTA, 1 μM Pepstatin A, 100 μM Leupeptin, 0.1 mg/mL aprotinin). Cell suspensions are then homogenized on ice using the Polytron 1200 C at setting 6 for three 30-second intervals with 30-second rests. The suspension is centrifuged at 1000 g for 10 minutes at 4° C. and the supernatant is collected and further centrifuged at 24000 rpm for 30 minutes at 4° C. using an ultracentrifuge. Pellets are resuspended by adding in cold microsomal buffer (50 mM HEPES (pH 7.4) and 1 mM EDTA) and sheared through a 23-gauge needle five times, keeping the suspension on ice. Protein concentrations are determined using the BCA assay and aliquoted preparations are stored at −80° C. until needed.
Compound potency against hFAAH is determined using an enzymatic assay with a fluorescence readout. Briefly, experiments were carried out in a 96-well plate format (Corning Costar, # 3370) with a total well volume of 160 μL with components added in the following order: assay buffer (50 mM HEPES (pH 7.4), 1 mM EDTA, 1.4 mg/mL BSA), compound solutions (7 different concentrations per compound in duplicate), microsomal enzyme preparation (10 μg per well) and substrate [AA-AMC (arachadonyl 7-amino 4-methyl coumarin amide), 2 μM]. After a brief shaking, a kinetic read of the plate is obtained using a Tecan Safire II in kinetic mode for 275 cycles with excitation and emission wavelengths of 355 and 460 nm, respectively. Raw data is then processed and analyzed using Assay Explorer and GraphPad Prism.
The following compounds have been or can be prepared according to the methods of the invention. An enzymatic (fluorescence based) assay is performed as described above. In Table 1, activity of each compound is expressed as follows: • ++++ % Inhibition >75% • +++ % Inhibition >50% • ++ % Inhibition >25% • + % Inhibition <25%
Molecule c1ccc2ncc(Nc3ncnc4c3CN(CC3CC3)C4)cc2c1 [Compound 5, (6-Cyclopropylmethyl-6,7-dihydro-5H-pyrrolo[3,4-d]pyrimidin-4-yl)-quinolin-3-yl-amine] has an inhibition at 1 µM of less than 25%.
With Cn1nccc1S(=O)(=O)N1Cc2ncnc(Nc3cnc4ccccc4c3)c2C1 [Compound 60, [6-(2-Methyl-2H-pyrazole-3-sulfonyl)-6,7-dihydro-5H-pyrrolo[3,4-d]pyrimidin-4-yl]-quinolin-3-yl-amine] the inhibition at 1 µM was greater than 50%.
Work on Cn1nccc1CN1Cc2ncnc(Nc3cnc4ccccc4c3)c2C1 [Compound 24, [6-(2-Methyl-2H-pyrazol-3-ylmethyl)-6,7-dihydro-5H-pyrrolo[3,4-d]pyrimidin-4-yl]-quinolin-3-yl-amine] yielded an inhibition at 1 µM greater than 25%.
Cc1ncsc1CN1Cc2ncnc(Nc3cnc4ccccc4c3)c2C1 [Compound 66, [6-(4-Methyl-thiazol-5-ylmethyl)-6,7-dihydro-5H-pyrrolo[3,4-d]pyrimidin-4-yl]-quinolin-3-yl-amine] showed an inhibition at 1 µM greater than 75%.
c1ccc2ncc(Nc3ncnc4c3CN(C3CCCC3)C4)cc2c1 [Compound 41, (6-Cyclopentyl-6,7-dihydro-5H-pyrrolo[3,4-d]pyrimidin-4-yl)-quinolin-3-yl-amine] gave an inhibition at 1 µM greater than 50%.
With Fc1ccccc1CN1Cc2ncnc(Nc3cnc4ccccc4c3)c2C1 [Compound 80, [6-(2-Fluoro-benzyl)-6,7-dihydro-5H-pyrrolo[3,4-d]pyrimidin-4-yl]-quinolin-3-yl-amine] the inhibition at 1 µM was greater than 75%.
c1ccc2ncc(Nc3ncnc4c3CN(Cc3nccs3)C4)cc2c1 [Compound 76, Quinolin-3-yl-(6-thiazol-2-ylmethyl-6,7-dihydro-5H-pyrrolo[3,4-d]pyrimidin-4-yl)-amine] was tested, and the inhibition at 1 µM was greater than 25%.
In the case of CCc1nc(C)c(CN2Cc3ncnc(Nc4cnc5ccccc5c4)c3C2)s1 [Compound 97, [6-(2-Ethyl-4-methyl-thiazol-5-ylmethyl)-6,7-dihydro-5H-pyrrolo[3,4-d]pyrimidin-4-yl]-quinolin-3-yl-amine], the inhibition at 1 µM is reported as greater than 75%.
With Cc1occc1CN1Cc2ncnc(Nc3cnc4ccccc4c3)c2C1 [Compound 96, [6-(2-Methyl-furan-3-ylmethyl)-6,7-dihydro-5H-pyrrolo[3,4-d]pyrimidin-4-yl]-quinolin-3-yl-amine] the inhibition at 1 µM was greater than 50%.
Cc1nc(CN2Cc3ncnc(Nc4cnc5ccccc5c4)c3C2)cs1 [Compound 25, [6-(2-Methyl-thiazol-4-ylmethyl)-6,7-dihydro-5H-pyrrolo[3,4-d]pyrimidin-4-yl]-quinolin-3-yl-amine] was tested, and the inhibition at 1 µM was less than 25%.
With Clc1ccccc1CN1Cc2ncnc(Nc3cnc4ccccc4c3)c2C1 [Compound 84, [6-(2-Chloro-benzyl)-6,7-dihydro-5H-pyrrolo[3,4-d]pyrimidin-4-yl]-quinolin-3-yl-amine] the inhibition at 1 µM was greater than 75%.
With COc1ccccc1S(=O)(=O)N1Cc2ncnc(Nc3cnc4ccccc4c3)c2C1 [Compound 73, [6-(2-Methoxy-benzenesulfonyl)-6,7-dihydro-5H-pyrrolo[3,4-d]pyrimidin-4-yl]-quinolin-3-yl-amine] the inhibition at 1 µM was greater than 25%.
Molecule FC(F)(F)Oc1ccccc1CN1Cc2ncnc(Nc3cnc4ccccc4c3)c2C1 [Compound 98, Quinolin-3-yl-[6-(2-trifluoromethoxy-benzyl)-6,7-dihydro-5H-pyrrolo[3,4-d]pyrimidin-4-yl]-amine] has an inhibition at 1 µM greater than 75%.
CC(C1CCCCC1)N1Cc2ncnc(Nc3cnc4ccccc4c3)c2C1 (centres unmarked) [Compound 38, [6-(1-Cyclohexyl-ethyl)-6,7-dihydro-5H-pyrrolo[3,4-d]pyrimidin-4-yl]-quinolin-3-yl-amine] showed an inhibition at 1 µM greater than 75%.
In the case of c1ccc2ncc(Nc3ncnc4c3CN(CC3CCCC3)C4)cc2c1 [Compound 12, (6-Cyclopentylmethyl-6,7-dihydro-5H-pyrrolo[3,4-d]pyrimidin-4-yl)-quinolin-3-yl-amine], the inhibition at 1 µM is reported as greater than 75%.
c1ccc2ncc(Nc3ncnc4c3CN(CC3CCCCC3)C4)cc2c1 [Compound 2, (6-Cyclohexylmethyl-6,7-dihydro-5H-pyrrolo[3,4-d]pyrimidin-4-yl)-quinolin-3-yl-amine] was tested, and the inhibition at 1 µM was greater than 75%.
CN1CCC(CN2Cc3ncnc(Nc4cnc5ccccc5c4)c3C2)CC1 [Compound 27, [6-(1-Methyl-piperidin-4-ylmethyl)-6,7-dihydro-5H-pyrrolo[3,4-d]pyrimidin-4-yl]-quinolin-3-yl-amine] gave an inhibition at 1 µM of less than 25%.
Molecule Cc1ccoc1CN1Cc2ncnc(Nc3cnc4ccccc4c3)c2C1 [Compound 86, [6-(3-Methyl-furan-2-ylmethyl)-6,7-dihydro-5H-pyrrolo[3,4-d]pyrimidin-4-yl]-quinolin-3-yl-amine] has an inhibition at 1 µM greater than 75%.
Molecule O=S(=O)(c1ccccc1F)N1Cc2ncnc(Nc3cnc4ccccc4c3)c2C1 [Compound 71, [6-(2-Fluoro-benzenesulfonyl)-6,7-dihydro-5H-pyrrolo[3,4-d]pyrimidin-4-yl]-quinolin-3-yl-amine] has an inhibition at 1 µM greater than 25%.
Molecule CCC(C)CN1Cc2ncnc(Nc3cnc4ccccc4c3)c2C1 (centres unmarked) [Compound 8, [6-(2-Methyl-butyl)-6,7-dihydro-5H-pyrrolo[3,4-d]pyrimidin-4-yl]-quinolin-3-yl-amine] has an inhibition at 1 µM greater than 75%.
c1ccc2ncc(Nc3ncnc4c3CN(Cc3cncs3)C4)cc2c1 [Compound 81, Quinolin-3-yl-(6-thiazol-5-ylmethyl-6,7-dihydro-5H-pyrrolo[3,4-d]pyrimidin-4-yl)-amine] showed an inhibition at 1 µM greater than 25%.
In the case of Cc1ccc(CN2Cc3ncnc(Nc4cnc5ccccc5c4)c3C2)c(C)c1 [Compound 93, [6-(2,4-Dimethyl-benzyl)-6,7-dihydro-5H-pyrrolo[3,4-d]pyrimidin-4-yl]-quinolin-3-yl-amine], the inhibition at 1 µM is reported as greater than 25%.
Molecule COc1ccccc1CN1Cc2ncnc(Nc3cnc4ccccc4c3)c2C1 [Compound 83, [6-(2-Methoxy-benzyl)-6,7-dihydro-5H-pyrrolo[3,4-d]pyrimidin-4-yl]-quinolin-3-yl-amine] has an inhibition at 1 µM greater than 75%.
In the case of c1cc(CN2Cc3ncnc(Nc4cnc5ccccc5c4)c3C2)c2c(c1)OCO2 [Compound 103, (6-Benzo[1,3]dioxol-4-ylmethyl-6,7-dihydro-5H-pyrrolo[3,4-d]pyrimidin-4-yl)-quinolin-3-yl-amine], the inhibition at 1 µM is reported as greater than 75%.
Work on Cc1cccc(C)c1CN1Cc2ncnc(Nc3cnc4ccccc4c3)c2C1 [Compound 88, [6-(2,6-Dimethyl-benzyl)-6,7-dihydro-5H-pyrrolo[3,4-d]pyrimidin-4-yl]-quinolin-3-yl-amine] yielded an inhibition at 1 µM greater than 50%.
O=S(=O)(C1CCCC1)N1Cc2ncnc(Nc3cnc4ccccc4c3)c2C1 [Compound 57, (6-Cyclopentanesulfonyl-6,7-dihydro-5H-pyrrolo[3,4-d]pyrimidin-4-yl)-quinolin-3-yl-amine] gave an inhibition at 1 µM greater than 25%.
CCCOc1ccccc1CN1Cc2ncnc(Nc3cnc4ccccc4c3)c2C1 [Compound 108, [6-(2-Propoxy-benzyl)-6,7-dihydro-5H-pyrrolo[3,4-d]pyrimidin-4-yl]-quinolin-3-yl-amine] gave an inhibition at 1 µM greater than 50%.
c1ccc2ncc(Nc3ncnc4c3CN(CC3CCOC3)C4)cc2c1 (centres unmarked) [Compound 13, Quinolin-3-yl-[6-(tetrahydro-furan-3-ylmethyl)-6,7-dihydro-5H-pyrrolo[3,4-d]pyrimidin-4-yl]-amine] was tested, and the inhibition at 1 µM was greater than 25%.
CSc1ccccc1CN1Cc2ncnc(Nc3cnc4ccccc4c3)c2C1 [Compound 102, [6-(2-Methylsulfanyl-benzyl)-6,7-dihydro-5H-pyrrolo[3,4-d]pyrimidin-4-yl]-quinolin-3-yl-amine] was tested, and the inhibition at 1 µM was greater than 75%.
